According to patent US8916579B2, “5-fluoropyrimidinone derivatives” (Dow AgroSciences, LLC., priority 2009, dated 2014):
Like-named read-outs stand apart in the source and are kept apart here.

Experiments:
[1] = test system: Mycosphaerella graminicola; anamorph: Septoria tritici; Bayer code SEPTTR; test: Fungicidal activity: leaf blotch of wheat, greenhouse wheat plants (variety Yuma), percent disease control; type: in vivo; conditions: Zymoseptoria tritici
Description: Evaluation of Fungicidal Activity: Leaf Blotch of Wheat (Mycosphaerella graminicola; anamorph: Septoria tritici; Bayer code SEPTTR)
Wheat plants (variety Yuma) were grown from seed in a greenhouse in 50% mineral soil/50% soil-less Metro mix until the first leaf was fully emerged, with 7-10 seedlings per pot. These plants were inoculated with an aqueous spore suspension of Septoria tritici either prior to or after fungicide treatments. After inoculation the plants were kept in 100% relative humidity (one day in a dark dew chamber followed by two to three days in a lighted dew chamber) to permit spores to germinate and infect the leaf. The plants were then transferred to a greenhouse for disease to develop.
The effectiveness of the test compounds in controlling disease was determined by assessing the severity of disease on treated plants, then converting the severity to percent control based on the level of disease on untreated, inoculated plants. • In each case of Table II the rating scale is as follows: […]

[2] = 24 h, One-Day Protectant (1DP), 100 ppm, wheat plants, read-out: SEPTTR 100 PPM 1DP (% Disease Control rating)
[3] = 72 h, Three-Day Curative (3DC), 100 ppm, wheat plants, read-out: SEPTTR 100 PPM 3DC (% Disease Control rating)
[4] = 24 h, read-out: SEPTTR 100 PPM 1DP (% Disease Control rating)
[5] = 72 h, read-out: SEPTTR 100 PPM 3DC (% Disease Control rating)

| Structure (SMILES) | pest or weed control at 100 ppm [1, 2] [%] | pest or weed control at 100 ppm [1, 3] [%] | melting point | pest or weed control at 100 ppm [1, 4] [%] | pest or weed control at 100 ppm [1, 5] [%] |
| --- | --- | --- | --- | --- | --- |
| Cc1ccc(NC(=O)Nc2nc(=O)n(CC3CC3)cc2F)cc1 [Compound 88] | 0 to 25 | 51 to 75 | 205.6 to 207.5 °C |  |  |
| O=C(Nc1ccccc1Cl)Nc1nc(=O)n(Cc2cccnc2)cc1F [Compound 91] | 0 to 25 | 0 to 25 | 210.5 to 212.3 °C |  |  |
| Nc1nc(=O)n(-c2ccsc2)cc1F [Compound 39, 4-amino-5-fluoro-1-(thiophen-3-yl)pyrimidin-2(1H)-one] |  |  | 228 to 229 °C | 0 to 25 | 76 to 100 |
| CC(C)Cn1cc(F)c(NC(=O)c2ccccc2F)nc1=O [Compound 98] | 0 to 25 | 0 to 25 | 161.3 to 163 °C |  |  |
| CN(C)/C=N/c1nc(=O)n(Cc2ccccc2)cc1F [Compound 6] | 0 to 25 | 0 to 25 | 186 to 188 °C |  |  |
| Nc1nc(=O)n(CC2CCCO2)cc1F (stereo not drawn) [Compound 76] | 0 to 25 | 51 to 75 | 179.2 to 181.1 °C |  |  |
| CC(C)Cn1cc(F)c(NCc2cccs2)nc1=O [Compound 106] | 26 to 50 | 26 to 50 | 88.8 to 91.7 °C |  |  |
| CN(C)/C=N/c1nc(=O)n(Cc2ccc(F)c(F)c2)cc1F [Compound 35] | 51 to 75 | 51 to 75 | 196 to 200 °C |  |  |
| COc1ccc(-n2cc(F)c(N)nc2=O)cc1OC [Compound 40] | 0 to 25 | 0 to 25 | 244.8 to 245.6 °C |  |  |
| O=C(Nc1nc(=O)n(CC2CC2)cc1F)OCc1ccccc1 [Compound 81] | 26 to 50 | 76 to 100 | 228 to 230 °C |  |  |
| C=Cn1cc(F)c(N)nc1=O [Compound 41] | 76 to 100 | 76 to 100 | 213.5 to 214.4 °C |  |  |
| CN(C)/C=N/c1nc(=O)n(-c2ccsc2)cc1F [Compound 56, (E)-N′-(5-fluoro-2-oxo-1-(thiophen-3-yl)-1,2-dihydropyrimidin-4-yl)-N,N-dimethylformimidamide] | 26 to 50 | 51 to 75 | 211 to 213 °C |  |  |
| Cc1ccc(NC(=O)Nc2nc(=O)n(Cc3cccnc3)cc2F)cc1 [Compound 90] | 0 to 25 | 0 to 25 | 178.2 to 180 °C |  |  |
| COCCOCn1cc(F)c(N)nc1=O [Compound 16] | 0 to 25 | 0 to 25 | 160 to 163 °C |  |  |
| N#Cc1cccc(-n2cc(F)c(N)nc2=O)c1 [Compound 46] | 0 to 25 | 0 to 25 | 175 to 178 °C |  |  |
| CC(=O)Nc1nc(=O)n(CC(C)C)cc1F [Compound 97] | 26 to 50 | 26 to 50 | 134.5 to 136.5 °C |  |  |
| CCCCCNC(=O)Nc1nc(=O)n(Cc2cccnc2)cc1F [Compound 89] | 0 to 25 | 26 to 50 | 146 to 147.6 °C |  |  |
| CSCn1cc(F)c(/N=C/N(C)C)nc1=O [Compound 24, N′-(5-fluoro-1-methylsulfanylmethyl-2-oxo-1,2-dihydropyrimidin-4-yl)-N,N-dimethylformamidine] |  |  | 132 to 136 °C | 76 to 100 | 76 to 100 |
| CCCC(=O)OCn1cc(F)c(/N=C/N(C)C)nc1=O [Compound 13] | 76 to 100 | 76 to 100 | 109 to 111 °C |  |  |
| Nc1nc(=O)n(CC2CCOC2)cc1F (stereo not drawn) [Compound 32] | 76 to 100 | 76 to 100 | 255 °C (dec.) |  |  |
| CCOC(=O)C(OCC)n1cc(F)c(N)nc1=O (stereo not drawn) [Compound 20] | 0 to 25 | 0 to 25 | 150 to 154 °C |  |  |
| CCCCCNC(=O)Nc1nc(=O)n(CC2CC2)cc1F [Compound 87] | 0 to 25 | 51 to 75 | 113 to 114.9 °C |  |  |
| C[Si](C)(C)CCOCn1cc(F)c(N)nc1=O [Compound 17] | 51 to 75 | 76 to 100 | 187 to 192 °C |  |  |
| Cc1ccc(-n2cc(F)c(N)nc2=O)cc1 [Compound 43] | 26 to 50 | 0 to 25 | 225 to 227 °C |  |  |
